Tests used:
Assay type in all cases: cell-based
BAG1 = experiment: Western blot of BAG1 level in breast cancer cells; settings: MCF-7 and T47D cells, 48 h
Procedure: For Western blotting, cells were lysed in NP-40 lysis buffer (1% NP-40, 50 mM Tris-HCl, pH 8.0, 150 mM NaCl, 5 mM EDTA) or 1× passive lysis buffer (Promega, Germany) for 15 min on ice. Cell debris was removed by centrifugation at 13,000 rpm for 10 min and used for SDS-polyacrylamide gel electrophoresis (PAGE) and Western blotting.
Western Blotting was carried out using standard protocols with antibodies: p53 (clone DO1), p53 (Sp5, Thermo Fisher Scientific Karlsruhe, Germany), Mdm2 (4B2, Abcam, Cambridge, UK). […] Secondary goat anti-mouse and goat anti-rabbit antibodies were purchased from DAKO (Bollschweil, Germany).

BAG2 with mutant p53 = target: T1, BAG2 with mutant p53 (Homo sapiens, UniProt O95816); experiment: Co-immunoprecipitation in T47D cells; settings: 1 µM, 48 h
T1 construct: endogenous in cells; host or cells: T47D
Procedure: (§1) Cells were harvested, washed with PBS, and lysed using NP-40 lysis buffer. Protein A agarose beads (Thermo Fisher Scientific) were mixed with protein G agarose beads (Thermo Fisher Scientific) (4:1) and preincubated overnight at 4°C with anti-p53 or anti-BAG1 or control IgG antibody. Cellular extracts from X15695 treated and untreated cells (1,000 µg) were incubated with antibody-preincubated protein A/G agarose beads for 3 to 4 h at room temperature. The beads with immunoprecipitated proteins were collected at 4°C by centrifugation at 1,000 g for 5 min and washed 4 to 5 times with NP-40 lysis buffer. The immunoprecipitated proteins were eluted by heating in SDS sample buffer for 5 min at 95°C and resolved on SDS-PAGE. Thereafter, they were subjected to Western blot analysis to detect mortalin, BAG1, BAG2, BAG5 and p53. Cellular extracts containing 50 to 70 µg protein from X15695 treated and untreated cells were used as the input control for the targeted proteins.

BAG5 with mutant p53 = target: T2, BAG5 with mutant p53 (Homo sapiens, UniProt Q9UL15); experiment: Co-immunoprecipitation in T47D cells; settings: 1 µM, 48 h
T2 construct: endogenous in cells; host or cells: T47D
Procedure: as §1

LAPC-4 cells = experiment: FACS cell cycle analysis; settings: 1 µM, 48 h, DRAQ5
Procedure: (§2) LNCaP, LAPC-4, MCF-7 and T47D cells were treated with 1 µM X15695 or DMSO for 48 h. Single cell suspensions (1×10^6 cells) were prepared in 150 µl PBS/10% FBS. Cells were fixed by addition of 5 ml ice-cold ethanol (70%) and over-night incubation at 4°C. Fixed LNCaP and LAPC-4 cells were stained with 20 µM DRAQ5 (5mM stock, Thermo Fisher Scientific) and incubated for 15 min at room temperature. Fixed MCF-7 and T47D cells were resuspended in PBS at concentration of 1×10^6 cells/100 µl and stained by addition of 5 µl of 7-AAD (BD Bioscience, San Diego, CA, USA) for 15 min at room temperature in the dark. Flow cytometry analysis was performed using BD FACSAria (BD Biosciences, Franklin Lakes, NJ, USA). Doublets and dead cells were excluded from the analysis. Flow cytometry data were analyzed using FlowJo 10.8.1 cytometry analysis software (FlowJo, LLC).

LNCaP cells = experiment: FACS cell cycle analysis; settings: 1 µM, 48 h, DRAQ5
Procedure: as §2

MCF-7 cells = experiment: FACS cell cycle analysis; settings: 1 µM, 48 h, 7-AAD
Procedure: as §2

T47D cells = experiment: FACS cell cycle analysis; settings: 1 µM, 48 h, 7-AAD
Procedure: as §2

LNCaP and LAPC-4 cells = experiment: Apoptosis by automated high-throughput microscopy (Hoechst / propidium iodide); settings: 48 h
Procedure: Apoptosis in LNCaP and LAPC-4 cells was measured using an automated high-throughput microscopy method known in the art. In brief, LNCaP and LAPC4 cells (5×10^3) were seeded in a 96-well plate format. Cells were treated with 10^-9 - 10^-6 M X15695, DMSO or etoposide (250 µM) for 48h. Cells were stained with Hoechst 33342 (0,15 µg/ml) and propidium iodide (PI) (0,25 µg/ml) for 30 min at 37°C. Four brightfield and fluorescence images were acquired from different positions in each well using an automated Olympus IX81 fluorescence microscope (Olympus, Hamburg, Germany). The Hoechst dye was detected at excitation 350 nm and emission 450 nm and PI dye was detected at 488 nm and 590 nm. The total number of cells (all Hoechst-stained nuclei) as well as the number of early apoptotic, late apoptotic, and necrotic cells (combination of Hoechst and PI nuclei intensity) was obtained by analyzing images with the scan^R software (version 2.7.3, Olympus, Hamburg, Germany).

[1] = system: TRMCF-7 cells (tamoxifen resistant MCF-7 cells); experiment: MTT cell viability assay; settings: 48 h
Procedure: […] Cells transfected with siRNA were incubated for 72 h after X15695 addition. Thereafter, the medium was exchanged for a fresh medium containing 0.5 mg/ml MTT (Sigma-Aldrich) and incubated at 37°C for 1 h to 4 h (depending on cell line) until intracellular purple formazan crystals were formed. The MTT solution was removed, and the purple crystals were dissolved in isopropanol and the optical absorbance at 595 nm was recorded using SpectraMax iD3, Molecular Devices, San Jose, CA, USA.

[2] = system: AR target gene expression; experiment: Quantitative RT-PCR of AR target genes in LNCaP cells; settings: 10 nM DHT, 16 h, compared among the six selected imidazopyridines
Procedure: (§3) MCF-7, T47D and LNCaP cells (5×10^4 each) were seeded in 6-well plates and cultured with hormone-depleted medium for 3 days. Subsequently, the MCF-7 and T47D cells were treated with 10 nM 17-β-estradiol (E2) or dihydrotestosterone (DHT) for the LNCaP cells, 1 µM) X15695 (for the MCF-7 and T47D cells) or 5 µM) for LNCaP cells and X15695 together with E2 or DHT. A 1 h pre-treatment with X15695 was performed prior to treatment with E2 or DHT for 16 h. RNA was extracted using innuPREP RNA mini Kit 2.0 (Analytic Jena, Berlin, Germany). 1 µg RNA per sample was used as input material for the RNA sample preparations. Sequencing libraries were generated using NEBNext® UltraTM RNA Library Prep Kit for Illumina® (NEB, USA) following the manufacturer's recommendations and index codes were added to attribute sequences to each sample. The clustering of the index-coded samples was performed on a cBot Cluster Generation System using PE Cluster Kit cBot-HS (Illumina) according to the manufacturer's instructions. After cluster generation, the library preparations were sequenced on an Illumina platform and paired-end reads were generated. Library preparation and sequencing were carried out by Novogene Europe, Cambridge, UK. […] Select target genes were analyzed by RT-PCR experiments with RNA from the samples used for the RNA-seq analysis. […]

p53 target genes = experiment: Quantitative RT-PCR of p53 target genes in MCF-7 and T47D cells; settings: 1 µM, absence and presence of E2, 16 h
Procedure: as §3

T2 sequence (Q9UL15 whole entry, stated change not applied): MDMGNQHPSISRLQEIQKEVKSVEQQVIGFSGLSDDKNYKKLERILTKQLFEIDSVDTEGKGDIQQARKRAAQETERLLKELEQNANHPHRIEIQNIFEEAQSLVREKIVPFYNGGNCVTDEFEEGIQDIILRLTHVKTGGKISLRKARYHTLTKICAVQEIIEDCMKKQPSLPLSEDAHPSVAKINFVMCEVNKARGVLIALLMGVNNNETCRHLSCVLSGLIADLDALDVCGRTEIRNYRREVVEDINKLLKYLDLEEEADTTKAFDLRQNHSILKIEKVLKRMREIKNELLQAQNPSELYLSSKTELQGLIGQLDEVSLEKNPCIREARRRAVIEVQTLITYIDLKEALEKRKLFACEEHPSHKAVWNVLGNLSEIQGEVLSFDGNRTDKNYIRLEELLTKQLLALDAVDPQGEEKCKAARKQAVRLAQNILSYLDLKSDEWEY
T1 sequence (O95816 whole entry, stated change not applied): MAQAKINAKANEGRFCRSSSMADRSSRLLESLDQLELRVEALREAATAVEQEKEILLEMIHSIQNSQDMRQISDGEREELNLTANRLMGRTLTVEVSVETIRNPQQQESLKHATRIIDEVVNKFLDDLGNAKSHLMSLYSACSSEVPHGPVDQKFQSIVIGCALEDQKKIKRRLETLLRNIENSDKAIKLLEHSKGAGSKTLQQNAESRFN

`Fc1ccc(-c2cn3cc(C(F)(F)F)cc(Cl)c3n2)cc1` [Compound X15695, 8-Chloro-2-(4-fluorophenyl)-6-(trifluoromethyl)imidazo[1,2-a]pyridine] was tested, and the “level of the BAG1 proteins” value (BAG1) was “dose-dependent decrease in the level of the BAG1 proteins”, the “interaction of BAG2 with mutant p53” value (BAG2 with mutant p53) was “disrupts the interaction of BAG2” and the “interaction of BAG5 with mutant p53” value (BAG5 with mutant p53) was “not BAG5”. For the same molecule, the cell cycle arrest (LAPC-4 cells) was “G2/M arrest”, the cell cycle arrest (LNCaP cells) was “G1/S phase arrest” and the cell cycle arrest (MCF-7 cells) was “G1/S phase arrest”. The cell cycle arrest (T47D cells) was “G2/M cell cycle arrest”, the apoptosis (LNCaP and LAPC-4 cells) was “No apoptotic effect” and the inhibition of viability [1] was “comparable activities”. For the same molecule, the “attenuation of androgen-induced AR target gene expression” value [2] was “the compound with the most inhibitory activity” and the “expression of p53 target genes” value (p53 target genes) was “upregulation of expression of p53 target genes”.
